Reference: patent US10428082B2, “Triazole derivatives of melampomagnolide B and methods of use thereof” (BioVentures, LLC, priority 2016, dated 2019)
Where two headings read alike, the source gives them in different places.

How the values were obtained:
M9 ENL1 cell line = assay: Anti-leukemic activity, Annexin V/7-AAD flow cytometry; type: cell-based; details: 24 h of drug exposure, read-out: M9ENL1 (EC50)
Summary of the method: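 Cells were exposed to drug for 24 h. Apoptotic populations were measured by flow cytometry with Annexin V/7-AAD labelling. Primary AML cells were from patients.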

NCI-H226 = assay: NCI 60 growth inhibition; type: cell-based, human; details: NCI-H226, Non-Small Cell Lung Cancer, Table 2
Experimental: (§1) The above triazole derivatives of melampomagnolide B were evaluated for growth inhibitory properties against an NCI panel of 60 human cancer cell lines derived from nine human cancer cell types, grouped into disease sub-panels that represent leukemia, lung, colon, central nervous system (CNS), melanoma, renal, ovary, breast, and prostate cancer cells. Growth inhibitory (GI50) effects were measured as a function of the variation of optical density as a percentage of control.

SK-MEL-2 = assay: NCI 60 growth inhibition; type: cell-based, human; details: SK-MEL-2, Melanoma, Table 2
Experimental: as §1

U251 = assay: NCI 60 growth inhibition; type: cell-based, human; details: U251, CNS Cancer, Table 2
Experimental: as §1

DU-145 = assay: NCI 60 growth inhibition; type: cell-based, human; details: DU-145, Prostate Cancer, Table 2
Experimental: as §1

SR = assay: NCI 60 growth inhibition; type: cell-based, human; details: Leukemia, Table 2
Experimental: as §1

RPMI-8226 = assay: NCI 60 growth inhibition; type: cell-based, human; details: RPMI-8226, Leukemia, Table 2
Experimental: as §1

SNB-19 = assay: NCI 60 growth inhibition; type: cell-based, human; details: SNB-19, CNS Cancer, Table 2
Experimental: as §1

786-0 = assay: NCI 60 growth inhibition; type: cell-based, human; details: 786-0, Renal Cancer, Table 2
Experimental: as §1

IGROV1 = assay: NCI 60 growth inhibition; type: cell-based, human; details: IGROV1, Ovarian Cancer, Table 2
Experimental: as §1

MCF7 = assay: NCI 60 growth inhibition; type: cell-based, human; details: MCF7, Breast Cancer, Table 2
Experimental: as §1

UACC-62 = assay: NCI 60 growth inhibition; type: cell-based, human; details: UACC-62, Melanoma, Table 2
Experimental: as §1

SK-OV-3 = assay: NCI 60 growth inhibition; type: cell-based, human; details: SK-OV-3, Ovarian Cancer, Table 2
Experimental: as §1

MALME-3M = assay: NCI 60 growth inhibition; type: cell-based, human; details: Melanoma, Table 2
Experimental: as §1

NCI-H460 = assay: NCI 60 growth inhibition; type: cell-based, human; details: NCI-H460, Non-Small Cell Lung Cancer, Table 2
Experimental: as §1

MDA-MB-435 = assay: NCI 60 growth inhibition; type: cell-based, human; details: MDA-MB-435, Melanoma, Table 2
Experimental: as §1

SF-539 = assay: NCI 60 growth inhibition; type: cell-based, human; details: SF-539, CNS Cancer, Table 2
Experimental: as §1

HS 578T = assay: NCI 60 growth inhibition; type: cell-based, human; details: Breast Cancer, Table 2
Experimental: as §1

HL-60(TB) = assay: NCI 60 growth inhibition; type: cell-based, human; details: HL-60(TB), Leukemia, Table 2
Experimental: as §1

SW-620 = assay: NCI 60 growth inhibition; type: cell-based, human; details: SW-620, Colon Cancer, Table 2
Experimental: as §1

MOLT-4 = assay: NCI 60 growth inhibition; type: cell-based, human; details: MOLT-4, Leukemia, Table 2
Experimental: as §1

LOX IMVI = assay: NCI 60 growth inhibition; type: cell-based, human; details: Melanoma, Table 2
Experimental: as §1

UO-31 = assay: NCI 60 growth inhibition; type: cell-based, human; details: UO-31, Renal Cancer, Table 2
Experimental: as §1

SN12C = assay: NCI 60 growth inhibition; type: cell-based, human; details: Renal Cancer, Table 2
Experimental: as §1

M14 = assay: NCI 60 growth inhibition; type: cell-based, human; details: M14, Melanoma, Table 2
Experimental: as §1

MDA-MB-468 = assay: NCI 60 growth inhibition; type: cell-based, human; details: MDA-MB-468, Breast Cancer, Table 2
Experimental: as §1

ACHN = assay: NCI 60 growth inhibition; type: cell-based, human; details: Renal Cancer, Table 2
Experimental: as §1

CAKI-1 = assay: NCI 60 growth inhibition; type: cell-based, human; details: CAKI-1, Renal Cancer, Table 2
Experimental: as §1

PC-3 = assay: NCI 60 growth inhibition; type: cell-based, human; details: PC-3, Prostate Cancer, Table 2
Experimental: as §1

HCT-15 = assay: NCI 60 growth inhibition; type: cell-based, human; details: HCT-15, Colon Cancer, Table 2
Experimental: as §1

MDA-MB-231/ATCC = assay: NCI 60 growth inhibition; type: cell-based, human; details: Breast Cancer, Table 2
Experimental: as §1

SK-MEL-5 = assay: NCI 60 growth inhibition; type: cell-based, human; details: SK-MEL-5, Melanoma, Table 2
Experimental: as §1

NCI/ADR-RES = assay: NCI 60 growth inhibition; type: cell-based, human; details: Ovarian Cancer, Table 2
Experimental: as §1

NCI-H522 = assay: NCI 60 growth inhibition; type: cell-based, human; details: NCI-H522, Non-Small Cell Lung Cancer, Table 2
Experimental: as §1

SF-268 = assay: NCI 60 growth inhibition; type: cell-based, human; details: SF-268, CNS Cancer, Table 2
Experimental: as §1

HCC-2998 = assay: NCI 60 growth inhibition; type: cell-based, human; details: HCC-2998, Colon Cancer, Table 2
Experimental: as §1

HCT-116 = assay: NCI 60 growth inhibition; type: cell-based, human; details: HCT-116, Colon Cancer, Table 2
Experimental: as §1

K-562 = assay: NCI 60 growth inhibition; type: cell-based, human; details: K-562, Leukemia, Table 2
Experimental: as §1

SMILES: C=C1C(=O)O[C@H]2[C@H]1CC/C(Cn1cc(-c3ccc(OC)cc3)nn1)=C\CC[C@@]1(C)O[C@@H]21 [JVM 4-24, (1aR,7aS,10aS,10bS,E)-5((4-(4-Methoxyphenyl)-1H-1,2,3-triazol-1-yl)methyl)-1a-methyl-8-methylene-2,3,6,7,7a,8,10a,10b-octahydrooxireno[2′,3′:9,10]cyclodeca[1,2-b]furan-9(1aH)-one]
- EC50 (M9 ENL1 cell line; M9-ENL1, 24 h): 1400 nM
- GI50 (NCI-H226; Homo sapiens): 1990 nM
- GI50 (SK-MEL-2; Homo sapiens): 1950 nM
- GI50 (U251; Homo sapiens, U-251): 9450 nM
- GI50 (DU-145; Homo sapiens): 1110 nM
- GI50 (SR; Homo sapiens): 250 nM
- GI50 (RPMI-8226; Homo sapiens): 1870 nM
- GI50 (SNB-19; Homo sapiens): 6920 nM
- GI50 (786-0; Homo sapiens): 1240 nM
- GI50 (IGROV1; Homo sapiens, IGROV-1): 1350 nM
- GI50 (MCF7; Homo sapiens): 420 nM
- GI50 (UACC-62; Homo sapiens): 1350 nM
- GI50 (SK-OV-3; Homo sapiens): 16300 nM
- GI50 (MALME-3M; Homo sapiens): 1670 nM
- GI50 (NCI-H460; Homo sapiens): 8450 nM
- GI50 (MDA-MB-435; Homo sapiens): 1140 nM
- GI50 (SF-539; Homo sapiens): 340 nM
- GI50 (HS 578T; Homo sapiens): 7420 nM
- GI50 (HL-60(TB); Homo sapiens): 1170 nM
- GI50 (SW-620; Homo sapiens): 490 nM
- GI50 (MOLT-4; Homo sapiens): 1130 nM
- GI50 (LOX IMVI; Homo sapiens): 1160 nM
- GI50 (UO-31; Homo sapiens): 1270 nM
- GI50 (SN12C; Homo sapiens): 1960 nM
- GI50 (M14; Homo sapiens): 1300 nM
- GI50 (MDA-MB-468; Homo sapiens): 890 nM
- GI50 (ACHN; Homo sapiens): 290 nM
- GI50 (CAKI-1; Homo sapiens): 1030 nM
- GI50 (PC-3; Homo sapiens): 9350 nM
- GI50 (HCT-15; Homo sapiens): 330 nM
- GI50 (MDA-MB-231/ATCC; Homo sapiens): 1440 nM
- GI50 (SK-MEL-5; Homo sapiens): 2100 nM
- GI50 (NCI/ADR-RES; Homo sapiens): 3080 nM
- GI50 (NCI-H522; Homo sapiens): 380 nM
- GI50 (SF-268; Homo sapiens): 2070 nM
- GI50 (HCC-2998; Homo sapiens): 1980 nM
- GI50 (HCT-116; Homo sapiens): 480 nM
- GI50 (K-562; Homo sapiens, K562): 1300 nM

SMILES: C=C1C(=O)O[C@H]2[C@H]1CC/C(Cn1cc(-c3cc(C)c(C)cc3C)nn1)=C\CC[C@@]1(C)O[C@@H]21 [JVM 4-50]
- EC50 (M9 ENL1 cell line): 9800 nM
- GI50 (NCI-H226): 1460 nM
- GI50 (SK-MEL-2): 1750 nM
- GI50 (U251): 1530 nM
- GI50 (DU-145): 1350 nM
- GI50 (SR): 1260 nM
- GI50 (RPMI-8226): 1180 nM
- GI50 (SNB-19): 3900 nM
- GI50 (786-0): 1500 nM
- GI50 (IGROV1): 1290 nM
- GI50 (MCF7): 430 nM
- GI50 (UACC-62): 1130 nM
- GI50 (SK-OV-3): 11700 nM
- GI50 (MALME-3M): 1430 nM
- GI50 (NCI-H460): 3160 nM
- GI50 (MDA-MB-435): 1410 nM
- GI50 (SF-539): 1160 nM
- GI50 (HS 578T): 1940 nM
- GI50 (HL-60(TB)): 640 nM
- GI50 (SW-620): 420 nM
- GI50 (MOLT-4): 2380 nM
- GI50 (LOX IMVI): 720 nM
- GI50 (UO-31): 520 nM
- GI50 (SN12C): 1490 nM
- GI50 (M14): 1500 nM
- GI50 (MDA-MB-468): 530 nM
- GI50 (ACHN): 1070 nM
- GI50 (CAKI-1): 1080 nM
- GI50 (PC-3): 1470 nM
- GI50 (HCT-15): 200 nM
- GI50 (MDA-MB-231/ATCC): 1110 nM
- GI50 (SK-MEL-5): 1660 nM
- GI50 (NCI/ADR-RES): 2510 nM
- GI50 (NCI-H522): 280 nM
- GI50 (SF-268): 1520 nM
- GI50 (HCC-2998): 1720 nM
- GI50 (HCT-116): 330 nM
- GI50 (K-562): 1390 nM
